The test system of one test is HCV replicon genotype 1a. In words: microbe, parasite or virus in culture. Type of test: cell-based. The following applies: Hepatitis C virus, 96 h, genotype 1a replicon cells, incubated 96 hours, NS3/4A ELISA readout.
A further test deals with HCV replicon genotype 1b. Nature of the test: microbe, parasite or virus in culture. Type of test: cell-based. The following applies: Hepatitis C virus, 96 h, genotype 1b replicon cells, incubated 96 hours, NS3/4A ELISA readout.

On to `CNC(=O)c1c(-c2ccc(F)cc2)oc2cc(N(C)S(C)(=O)=O)c(-c3ccc4c(c3)-c3[nH]c5ccccc5c3C(C)(C)O4)cc12` [Compound 61, 5-(6,6-dimethyl-6,11-dihydrochromeno[4,3-b]indol-2-yl)-2-(4-fluorophenyl)-N-methyl-6-(N-methylmethylsulfonamido)benzofuran-3-carboxamide], for which the IC50 with HCV replicon genotype 1a turned out to be 6.5 nM; in the test with HCV replicon genotype 1b, 11 nM.
Taken in the same sequence, the figures for `CNC(=O)c1c(-c2ccc(F)cc2)oc2cc(N(C)S(C)(=O)=O)c(-c3ccc4c(c3)-c3cc5ccccc5n3CC(NCCCN(C)C)CO4)cc12` (stereo not shown) [Compound 81] were 36 nM and 22 nM.
On to `CNC(=O)c1c(-c2ccc(F)cc2)oc2cc(N(CCF)S(C)(=O)=O)c(-c3ccc4c(n3)-c3cc5c(F)cccc5n3CO4)cc12` [Compound 190], for which the IC50 in the test on HCV replicon genotype 1a was found to be 2.8 nM; in the test with HCV replicon genotype 1b, 3.8 nM.
For `CNC(=O)c1c(-c2ccc(F)cc2)oc2cc(N(C)S(C)(=O)=O)c(-c3ncc4c(n3)-c3cc5c(F)cccc5n3CO4)cc12` [Compound 5], the IC50 in the test with HCV replicon genotype 1a came out at 1 nM; with HCV replicon genotype 1b it was 2 nM.
Taken in the same sequence, the figures for `CNC(=O)c1c(-c2ccc(F)cc2)oc2cc(N(C)S(C)(=O)=O)c(-c3nc4c(cc3F)OCn3c-4cc4c(F)cccc43)cc12` [Compound 27] were 2.9 nM and 6.1 nM.
Taken in the same sequence, the figures for `CNC(=O)c1c(-c2ccc(F)cc2)oc2cc(N(C)S(C)(=O)=O)c(-c3ccc4c(n3)-c3cc5c(C#N)nccc5n3CO4)cc12` [Compound 47] were 1.2 nM and 1.8 nM.
Taken in the same sequence, the figures for `CNC(=O)c1c(-c2ccc(F)cc2)oc2cc(N(C)S(C)(=O)=O)c(-c3ccc4c(n3)-c3cc5c(F)cccc5n3C(COC)O4)cc12` (stereo not shown) [Compound 95] were 3.2 nM and 5.3 nM.
`CNC(=O)c1c(-c2ccc(F)cc2)oc2cc(N(C)S(C)(=O)=O)c(-c3ccc4c(c3)-c3cc5ccccc5n3CC(NCCO)CO4)cc12` (stereo not shown) [Compound 85]: the concentration for half-maximal inhibition (IC50) turned out to be 13 nM in the test on HCV replicon genotype 1a and 7.7 nM with HCV replicon genotype 1b.

The values are drawn from patent US9265773B2, “Tetracyclic heterocycle compounds and methods of use thereof for the treatment of viral diseases” (priority 2011, dated 2016).
